According to patent publication US8658685B2, “Methods for treatment of kallikrein-related disorders” (Activesite Pharmaceuticals, Inc., priority 2008, dated 2014):

Key:
astrocytes [1] = test: Plasma kallikrein-induced ERK phosphorylation in astrocytes; assay type: cell-based; conditions: astrocytes exposed to plasma kallikrein
Excerpt: (§1) We have also studied the effects of plasma kallikrein pathway activation on astrocytes. […] Exposure of astrocytes to plasma kallikrein potently stimulated ERK phosphorylation, and this action of kallikrein on astrocytes is not affected by B2-R antagonism (Hoe140). The effect of kallikrein on astrocytes was blocked by leupeptin, a protease inhibitor and C1-INH (data not shown). […] This is in contrast to the bradykinin effect, which is rapid and transient (data not shown). Plasma kallikrein's effect on ERK phosphorylation in astrocytes is dose dependent, reaching a maximal effect at 100 nM kallikrein (data not shown). […] In addition, plasma kallikrein binding to astrocytes was blocked by AS-440 (FIG. 9B) and C1-INH (data not shown).

brain astrocytes = test: Bradykinin-induced ERK phosphorylation in brain astrocytes; assay type: cell-based
Excerpt: as §1

blood-induced hematoma = test: Hematoma after intracerebral infusion of autologous blood in diabetic rats; assay type: in vivo, Sprague-Dawley rats; conditions: systemic treatment, 48 h after intracerebral infusion of autologous blood
Method: We have compared the response to intracerebral infusion of blood in Sprague-Dawley rats with 1 mo of STZ-induced diabetes with age matched non-diabetic control rats. Fifty μL of autologous whole blood was collected from the tail vein and immediately infused 1 mm anterior, 4 mm lateral and 6 mm in depth to the bregma using a 30 gauge needle at 20 μL per minute. The infusion needle was removed 10 min after injection and the burr hole was sealed with bone wax. Forty-eight hours after intracerebral injection, the animals were perfused with saline and surface hematoma area was examined by measurement of hematoma area relative to total hemisphere area.

bradykinin-induced RVP = test: Bradykinin-induced RVP in rats (vitreous fluorophotometry); assay type: in vivo; conditions: pretreatment 2 days, 12 ug/day/200 g rat, subcutaneous Alzet pump
Excerpt: (§2) FIGS. 3A-3B are a set of two bar graphs that show the effects of intravitreal injection of kallikrein (FIG. 3A) and bradykinin (FIG. 3B) on RVP in rats measured using vitreous fluorophotometry. Activators of the kallikrein pathway, including purified activated plasma kallikrein, factor XII (FXII), high molecular weight kininogen (HK), and bradykinin, increase retinal vascular permeability (RVP) to fluorescein. In addition, inhibitors of the kallikrein pathway, such as complement I inhibitors and α2-macroglobulin reduced RVP. Direct injection of these kallikrein pathway activators into the vitreous was observed by SLO fundus imaging of the leakage from first phase fluorescein following bolus intravenous injection (FIG. 2) and by vitreous fluorophotometry, which measure the levels of fluorescein in the vitreous 30 min after intravenous injection (FIG. 5A). […] In addition, intravitreal injection of bradykinin can acutely increase RVP (FIGS. 2A and 2B). Moreover, pretreatment of rats for 2 days with Hoe140 (Bradykinin R2 antagonist, 12 ug/day/200 g rat delivered using a subcutaneous Alzet pump) inhibited bradykinin-induced RVP (FIG. 3B).

[2] = system: AngII-induced retinal vascular permeability; test: AngII-induced retinal vascular permeability in rats; assay type: in vivo, rat; conditions: AngII and ASP-465 via 2 Alzet pumps for 3 days; vitreous fluorophotometry
Method: Rats were implanted with a single subcutaneous osmotic pump containing Ang II or two pumps containing AngII and ASP-465, as indicated. RVP was measured using vitreous fluorophotometry after 3 days.
RVP was measured using Evan's blue dye method after 7 days.
We examined the effect of the kallikrein inhibitor ASP-465 on RVP induced by angiotensin II (AngII).

astrocytes [3] = test: Plasma kallikrein binding to astrocytes; assay type: cell-based
Excerpt: as §1

[4] = system: retinal vascular permeability (RVP); test: Retinal vascular permeability to fluorescein, kallikrein pathway inhibitors; conditions: in vivo
Excerpt: as §2, with “Activators” for “FIGS. 3A-3B are a set of two bar graphs that show the effects of intravitreal injection of kallikrein (FIG. 3A) and bradykinin (FIG. 3B) on RVP in rats measured using vitreous fluorophotometry. Activators”

With Hoe140 [reference compound] as the molecule, how does the “effect of kallikrein on ERK phosphorylation” value (“effect of kallikrein” below) (astrocytes [1]) read?
Its value is “not affected”.

What about the “bradykinin-induced ERK phosphorylation” value (brain astrocytes) of the same molecule?
Its value is “blocked”.

What about the hematoma area (blood-induced hematoma) of the same molecule?
The hematoma area was “did not reduce”.

What about the “bradykinin-induced RVP” value (bradykinin-induced RVP) of the same molecule?
The value was “inhibited”.

With `Cc1cc(C(=O)NCc2ccc(C(=N)N)cc2)c(C)n1Cc1ccncc1` [ASP-465, 2,5-Dimethyl-1-pyridin-4-ylmethyl-1H-pyrrole-3-carboxylic acid 4-carbamimidoyl-benzylamide] as the molecule, how does the RVP [2] read?
The RVP was “normal levels of RVP”.

How did the “effect of kallikrein” value (astrocytes [1]) turn out when `CC(=O)N[C@@H](CC(C)C)C(=O)N[C@@H](CC(C)C)C(=O)N[C@H](C=O)CCCNC(=N)N` [leupeptin, reference compound] was run?
Its value is “blocked”.

Which “effect of kallikrein” value (astrocytes [1]) does the source give for “C1-INH: C1-Esterase inhibitor, a serpin; major inhibitor of the classical complement pathway, contact activation system and intrinsic coagulation” here?
The value was “blocked”.

And the “plasma kallikrein binding to astrocytes” value (astrocytes [3])?
The value was “blocked”.

B1: complement I inhibitors: inhibitors of the kallikrein pathway; probably complement 1 inhibitor (C1-INH) (protein, UniProt P05155 23-500, looked up)
Plasma protease C1 inhibitor: NPNATSSSSQDPESLQDRGEGKVATTVISKMLFVEPILEVSSLPTTNSTTNSATKITANTTDEPTTQPTTEPTTQPTIQPTQPTTQLPTDSPTQPTTGSFCPGPVTLCSDLESHSTEAVLGDALVDFSLKLYHAFSAMKKVETNMAFSPFSIASLLTQVLLGAGENTKTNLESILSYPKDFTCVHQALKGFTTKGVTSVSQIFHSPDLAIRDTFVNASRTLYSSSPRVLSNNSDANLELINTWVAKNTNNKISRLLDSLPSDTRLVLLNAIYLSAKWKTTFDPKKTRMEPFHFKNSVIKVPMMNSKKYPVAHFIDQTLKAKVGQLQLSHNLSLVILVPQNLKHRLEDMEQALSPSVFKAIMEKLEMSKFQPTLLTLPRIKVTTSQDMLSIMEKLEFFDFSYDLNLCGLTEDPDLQVSAMQHQTVLELTETGVEAAAASAISVARTLLVFEVQQPFLFVLWDQQHKFPVFMGRVYDPRA
For B1, which RVP [4] is on record?
The RVP was “reduced RVP”.

B2: α2-macroglobulin: inhibitor of the kallikrein pathway (protein, UniProt P01023 24-1474, looked up)
Alpha-2-macroglobulin: SVSGKPQYMVLVPSLLHTETTEKGCVLLSYLNETVTVSASLESVRGNRSLFTDLEAENDVLHCVAFAVPKSSSNEEVMFLTVQVKGPTQEFKKRTTVMVKNEDSLVFVQTDKSIYKPGQTVKFRVVSMDENFHPLNELIPLVYIQDPKGNRIAQWQSFQLEGGLKQFSFPLSSEPFQGSYKVVVQKKSGGRTEHPFTVEEFVLPKFEVQVTVPKIITILEEEMNVSVCGLYTYGKPVPGHVTVSICRKYSDASDCHGEDSQAFCEKFSGQLNSHGCFYQQVKTKVFQLKRKEYEMKLHTEAQIQEEGTVVELTGRQSSEITRTITKLSFVKVDSHFRQGIPFFGQVRLVDGKGVPIPNKVIFIRGNEANYYSNATTDEHGLVQFSINTTNVMGTSLTVRVNYKDRSPCYGYQWVSEEHEEAHHTAYLVFSPSKSFVHLEPMSHELPCGHTQTVQAHYILNGGTLLGLKKLSFYYLIMAKGGIVRTGTHGLLVKQEDMKGHFSISIPVKSDIAPVARLLIYAVLPTGDVIGDSAKYDVENCLANKVDLSFSPSQSLPASHAHLRVTAAPQSVCALRAVDQSVLLMKPDAELSASSVYNLLPEKDLTGFPGPLNDQDNEDCINRHNVYINGITYTPVSSTNEKDMYSFLEDMGLKAFTNSKIRKPKMCPQLQQYEMHGPEGLRVGFYESDVMGRGHARLVHVEEPHTETVRKYFPETWIWDLVVVNSAGVAEVGVTVPDTITEWKAGAFCLSEDAGLGISSTASLRAFQPFFVELTMPYSVIRGEAFTLKATVLNYLPKCIRVSVQLEASPAFLAVPVEKEQAPHCICANGRQTVSWAVTPKSLGNVNFTVSAEALESQELCGTEVPSVPEHGRKDTVIKPLLVEPEGLEKETTFNSLLCPSGGEVSEELSLKLPPNVVEESARASVSVLGDILGSAMQNTQNLLQMPYGCGEQNMVLFAPNIYVLDYLNETQQLTPEIKSKAIGYLNTGYQRQLNYKHYDGSYSTFGERYGRNQGNTWLTAFVLKTFAQARAYIFIDEAHITQALIWLSQRQKDNGCFRSSGSLLNNAIKGGVEDEVTLSAYITIALLEIPLTVTHPVVRNALFCLESAWKTAQEGDHGSHVYTKALLAYAFALAGNQDKRKEVLKSLNEEAVKKDNSVHWERPQKPKAPVGHFYEPQAPSAEVEMTSYVLLAYLTAQPAPTSEDLTSATNIVKWITKQQNAQGGFSSTQDTVVALHALSKYGAATFTRTGKAAQVTIQSSGTFSSKFQVDNNNRLLLQQVSLPELPGEYSMKVTGEGCVYLQTSLKYNILPEKEEFPFALGVQTLPQTCDEPKAHTSFQISLSVSYTGSRSASNMAIVDVKMVSGFIPLKPTVKMLERSNHVSRTEVSSNHVLIYLDKVSNQTLSLFFTVLQDVPVRDLKPAIVKVYDYYETDEFAIAEYNAPCSKDLGNA
Which RVP [4] does the source give for B2 here?
The RVP was “reduced RVP”.
